≈ marks a conversion by molar mass, not a printed value.
System: multidrug-resistant (MDR) strains of Mycobacterium tuberculosis
Experiment: microbe, parasite or virus in culture
Format: cell-based
Conditions: 192 h, read-out: MIC MDR-TB, MDR strains, REMA, 8 days incubation at 37° C, Middlebrook 7H9 broth

Row | SMILES | MIC
1 | CCOC(=O)c1cc(C(=O)c2ccc(F)cc2)n2ccc(N)cc12 [Compound 3a, Ethyl 7-amino-3-(4-fluorobenzoyl)indolizine-1-carboxylate] | 32 µg/mL (≈ 98.1 µM)
2 | CCOC(=O)c1cc(C(=O)c2ccccc2[N+](=O)[O-])n2ccc(N)cc12 [Compound 3b, Ethyl 7-amino-3-(2-nitrobenzoyl)indolizine-1-carboxylate] | ~16 µg/mL (≈ 45.3 µM)
3 | COC(=O)c1c(C(=O)OC)c2cc(N)ccn2c1C(=O)c1ccc(OC)cc1 [Compound 3d, Dimethyl 7-amino-3-(4-methoxybenzoyl)indolizine-1,2-dicarboxylate] | ~32 µg/mL (≈ 83.7 µM)
4 | CCOC(=O)c1cc(C(=O)c2ccc(Br)cc2)n2ccc(N)cc12 [Compound 3e, Ethyl 7-amino-3-(4-bromobenzoyl)indolizine-1-carboxylate] | ~64 µg/mL (≈ 165 µM)
